Measurements reported in patent US7906486B2, “Method of treating or preventing tissue deterioration, injury or damage due to disease of mucosa” (SciClone Pharmaceuticals, Inc., priority 2007, dated 2011).

Experiments:
[1] = Weights and survival (Example 2, SCI-02); format: in vivo, Syrian Golden Hamsters
Protocol: All animals were weighed daily and their survival recorded, in order to assess possible differences in animal weight among treatment groups as an indication for mucositis severity and/or possible toxicity resulting from the treatments.
The mean daily percent weight change data was evaluated. The saline treated control hamsters gained an average of 44.1% of their starting weight during the study. Hamsters in the group receiving SCV-07 100 μg/kg once daily on days −1 to 20 gained an average of 49.9% of their starting weight during the study. Hamsters in the group receiving SCV-07 at 100 μg/kg twice daily on days −1 to 20 gained an average of 61.3% of their starting weight during the study. Hamsters in the group receiving SCV-07 at 1 mg/kg once daily on days −1 to 20 gained an average of 63.4% of their starting weight during the study. Hamsters in the group receiving SCV-07 at 1 mg/kg twice daily on days −1 to 20 gained an average of 69.1% of their starting weight during the study. The significance of these differences was evaluated by calculating the area-under-the-curve (AUC) for the weight gain of each animal, and then comparing the different treatment groups using a One-Way ANOVA test.

[2] = test system: oral mucositis induced by fractionated radiation (eight doses of 7.5 Gy, left buccal cheek pouch); assay: Oral mucositis induced by fractionated radiation in hamsters, mucositis scoring (Example 3, SCI-03); format: in vivo, Syrian Golden Hamsters; design: key: 0: Pouch completely healthy. No erythema or vasodilation.; 1: Light to severe erythema and vasodilation. No erosion of mucosa.; 2: Severe erythema and vasodilation. Erosion of superficial aspects of mucosa leaving denuded areas, but no frank ulceration. Decreased stippling of mucosa.; 3: Formation of off-white ulcers in one or more places. Ulcers may have a yellow/gray due to pseudomembrane. Cumulative size of ulcers should equal about ¼ of the pouch. Severe erythema and vasodilation.; 4: Cumulative seize of ulcers should equal about ½ of the pouch. Loss of pliability. Severe erythema and vasodilation.; 5: Virtually all of pouch is ulcerated. Loss of pliability (pouch can only partially be extracted from mouth)
Description: The fractionated radiation model in hamsters, developed by the Principal Investigator, has proven to be an accurate, efficient and cost-effective technique to provide a preliminary evaluation of anti-mucositis compounds. In this model, hamsters receive 8 doses of 7.5 Gy to the left cheek pouch on days 0, 1, 2, 3, […], rather than the single dose of 40 Gy on day 0 that is used in acute radiation studies. The rationale for using this scheduling for the radiation is that it more closely resembles the clinical courses of radiotherapy given to cancer patients. The course of mucositis in this model is well defined and results in peak mucositis scores approximately 14-16 days following radiation. Mortality (generally from the side effects of anesthesia) in the fractionated radiation model is slightly higher than that seen in the acute radiation model and group sizes are increased (to 10 per group) to allow for this.
(§1) Forty (40) male Syrian Golden Hamsters were given eight doses of radiation of 7.5 Gy each directed to their left buccal cheek pouch on days 0, 1, 2, 3, 6, 7, 8 and 9. This was accomplished by anesthetizing the animals and everting the left buccal pouch, while protecting the rest of the animal's bodies with a lead shield. Test materials were given by sub-cutaneous injection once daily as detailed in Table 9. Mucositis was evaluated clinically starting on day 7, and continuing on alternate days until day 35. Test articles were given as outlined Table 9, Groups 1 and 2 were dosed from Day −1 to Day 29, Group 3 was dosed on the days of radiation only, Group 4 was dosed on the days between Day −15 and Day 29 on which no radiation is given (Day −1, Day 4, Day 5 and Day 10 to Day 29).
The effect on mucositis of each drug treatment compared to placebo was assessed according to the following parameters:
On each evaluation day, the number of animals with a blinded mucositis score of ≧3 in each drug treatment group was compared to the control group. Differences were compared on a cumulative basis and statistical significance was determined by chi-square analysis. Efficacy, in this analysis, is defined by a significant reduction in the number of days that a group of animals had ulcerations (scores ≧3) when compared to the control group.
For each evaluation day the scores of the control group were compared to those of the treated groups using non-parametric rank sum analysis. Treatment success was considered as a statistically significant lowering of scores in the treated group on 2 or more days from day 6 to day 28.
as §1, with “daily at 8:00 am” for “daily”, “9. […]” for “9. Mucositis was evaluated clinically starting on day 7, and continuing on alternate days until day 35.”, “2 was” for “2 were”, “radiation only (days 0-3 and days 6-10),” for “radiation only,”, “Day −1” for “Day −15”, “Day 4 to” for “Day 4,”
Radiation was generated with a Philips 160 kVp (kilovolt potential) (18.75-ma) X-ray source at a focal distance of 30 cm, with a 3.0 mm hardened Al filtration system. Irradiation was targeted to the left buccal pouch mucosa at a rate of 3.32 Gy/minute. […] Using this calibration, the energy received by each animal at each radiation dose was approximately 64.5 nC (nanoCoulombs) at each time point. Prior to irradiation, animals were anesthetized with an intraperitoneal injection of ketamine (160 mg/kg) and xylazine (8 mg/kg). The left buccal pouch was everted, fixed and isolated using a lead shield.
The mucositis score, weight change and survival were measured throughout the study as described above. […]

N[C@H](CCC(=O)N[C@@H](Cc1c[nH]c2ccccc12)C(=O)O)C(=O)O [SCV-07, γ-D-glutamyl-L-tryptophan]
average weight gain, % of starting weight during the study ([1]; 100 ug/kg once daily on days -1 to 20): 49.9% | P, weight gain greater than saline controls ([1]; 100 ug/kg twice daily): 0.014 | average weight gain, % of starting weight during the study ([1]; 100 ug/kg twice daily on days -1 to 20): 61.3% | P, weight gain greater than saline controls ([1]; 1 mg/kg once daily): 0.009 | average weight gain, % of starting weight during the study ([1]; 1 mg/kg once daily on days -1 to 20): 63.4% | P, weight gain greater than saline controls ([1]; 1 mg/kg twice daily): 0.004 | average weight gain, % of starting weight during the study ([1]; 1 mg/kg twice daily on days -1 to 20): 69.1% | P, One-Way ANOVA of weight gain AUC, SCV-07 treated groups vs control group ([1]; all SCV-07 groups, significant differences): 0.012 | Mucositis score ([2]; Group 2, day 13, individual animals (two score lines each)): 2 | Mucositis score ([2]; Group 2, day 23, individual animals (two score lines each)): 2 | Mucositis score ([2]; Group 2, day 25, individual animals (two score lines each)): 2 | Mucositis score ([2]; Group 2, day 27, individual animals (two score lines each)): 2 | Mucositis score ([2]; Group 2, day 31, individual animals (two score lines each)): 2 | Mucositis score ([2]; Group 2, day 33, individual animals (two score lines each)): 2
